“And” between values parts separate entries of the source, which are not always exact repeats. Equal entries are not always repeated. Bridge positions count the residues as written; N and C are the ends. Ends that are not written are not given here. Peptide text beside a SMILES is read from it.
Tests used:
[1] = mouse, in vivo, ip
kOR [2] = target: T1, kOR (Mus musculus, UniProt P33534); test: biochemical; assay type: binding
kOR [3] = target: T1, kOR; test: cell-based
kOR [4] = target: T1, kOR; assay type: cell-based
EAE mouse model = settings: mice; oral administration; cited from earlier work
hKOR = hKOR (Homo sapiens, UniProt P41145); settings: cited from earlier work
T-cell proliferation = settings: in vitro; IL-2-dependent mechanism; cited from earlier work

T1 sequence (P33534 whole entry): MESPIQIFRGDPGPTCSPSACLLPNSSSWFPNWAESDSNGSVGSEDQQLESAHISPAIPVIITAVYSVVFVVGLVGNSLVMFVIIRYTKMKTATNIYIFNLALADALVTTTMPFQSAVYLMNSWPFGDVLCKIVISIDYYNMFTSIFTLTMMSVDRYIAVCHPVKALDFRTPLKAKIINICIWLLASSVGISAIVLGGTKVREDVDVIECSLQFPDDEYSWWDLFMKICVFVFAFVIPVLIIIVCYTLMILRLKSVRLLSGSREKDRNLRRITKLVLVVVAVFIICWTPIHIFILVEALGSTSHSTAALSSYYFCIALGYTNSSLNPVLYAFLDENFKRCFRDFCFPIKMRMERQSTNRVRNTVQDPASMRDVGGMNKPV
Sequence of hKOR (P41145 whole entry): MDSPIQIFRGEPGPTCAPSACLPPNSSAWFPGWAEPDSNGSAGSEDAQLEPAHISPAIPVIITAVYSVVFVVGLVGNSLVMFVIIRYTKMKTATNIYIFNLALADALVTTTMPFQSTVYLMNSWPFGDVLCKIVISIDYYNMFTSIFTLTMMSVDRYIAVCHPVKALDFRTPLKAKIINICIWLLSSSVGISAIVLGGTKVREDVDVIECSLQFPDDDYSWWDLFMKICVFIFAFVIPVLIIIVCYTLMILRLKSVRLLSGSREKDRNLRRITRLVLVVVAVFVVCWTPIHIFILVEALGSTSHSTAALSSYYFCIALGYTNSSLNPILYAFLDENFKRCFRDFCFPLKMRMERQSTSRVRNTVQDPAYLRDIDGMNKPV

Cc1cc(-c2ccc(/N=N/c3ccc4c(S(=O)(=O)[O-])cc(S(=O)(=O)[O-])c(N)c4c3O)c(C)c2)ccc1/N=N/c1ccc2c(S(=O)(=O)[O-])cc(S(=O)(=O)[O-])c(N)c2c1O.[Na+].[Na+].[Na+].[Na+] [EvansBlue dye, reference compound]
Biodistribution: brain [1]: strong signal | Biodistribution: spine [1]: strong signal

CC(C)C[C@@H]1NC(=O)CNC(=O)[C@H](CC(N)=O)NC(=O)[C@H](CCCNC(=N)N)NC(=O)[C@H]([C@@H](C)O)NC(=O)[C@@H]2CSSC[C@@H]3NC(=O)[C@H]([C@@H](C)O)NC(=O)CNC(=O)CNC(=O)[C@H](C(C)C)NC(=O)[C@@H]4CSSC[C@H](NC(=O)[C@H](CCCCN)NC(=O)[C@H](CSSC[C@H](NC(=O)[C@H](C(C)C)NC(=O)[C@@H]5CCCN5C1=O)C(=O)NCC(=O)N[C@@H](CCC(=O)O)C(=O)N[C@@H]([C@@H](C)O)C(=O)N4)NC(=O)CNC(=O)[C@@H]1CCCN1C(=O)[C@H]([C@@H](C)O)NC(=O)[C@H](CC(N)=O)NC3=O)C(=O)N[C@@H](CO)C(=O)N[C@@H](Cc1c[nH]c3ccccc13)C(=O)N1CCC[C@H]1C(=O)N[C@@H](C(C)C)C(=O)N2 [[T20K]-kalata B1] (cyclo(CGETCVGGTCNTPGCKCSWPVCTRNGLPV); disulfide 1-15, 5-17, 10-22 (inferred); ring closure inferred)
Effect on the affinity of dynorphin A 1-13 (kOR [2]): only slightly affects the affinity | Effect on tritiated diprenorphine binding (kOR [2]): negatively modulates tritiated diprenorphine | Ki (kOR [2]): 2.7 µM | EC50 (kOR [3]): 17 µM | Effect on the efficacy of U50,488 (cAMP) (kOR [3]): only slightly affected the efficacy | Effect on the efficacy of dynorphin A 1-13 (cAMP) (kOR [3]): increase in its efficacy | Effect on the potency of dynorphin A 1-13 (cAMP) (kOR [3]): does not affect the potency | Mode of action at the kOR (kOR [3]): full agonist | Shift in the potency of U50,488 (cAMP) (kOR [3]): nine-fold leftward shift in the potency | Effect on the efficacy of U50,488 to recruit beta arrestin (kOR [4]): remarkable alleviation of the efficacy | Effect on the potency of U50,488 to recruit beta arrestin (kOR [4]): not impinging on its potency | beta arrestin recruitment (kOR [4]): no recruitment of beta arrestin could be detected | Symptoms of EAE (EAE mouse model): significant delay and diminished symptoms of EAE | Binding to and activation of hKOR (hKOR): bind to and activate hKOR

CC[C@H](C)[C@@H]1NC(=O)[C@H](C(C)C)NC(=O)[C@H]([C@@H](C)O)NC(=O)[C@H](CO)NC(=O)[C@H](Cc2ccccc2)NC(=O)[C@@H]2CSSC[C@@H]3NC(=O)[C@H](C(C)C)NC(=O)[C@H](CCCCN)NC(=O)[C@H](CC(N)=O)NC(=O)[C@H](CCCCN)NC(=O)[C@@H]4CSSC[C@H](NC(=O)[C@H](CO)NC(=O)[C@H](CCC(=O)O)NC(=O)CNC(=O)[C@H](CSSC[C@H](NC(=O)CNC1=O)C(=O)N[C@@H](CO)C(=O)N4)NC(=O)[C@@H]1CCCN1C(=O)[C@H]([C@@H](C)CC)NC(=O)[C@H](C(C)C)NC(=O)CNC(=O)[C@H](CC(N)=O)NC(=O)[C@H](CCCNC(=N)N)NC(=O)[C@H](Cc1ccc(O)cc1)NC3=O)C(=O)N[C@@H](C(C)C)C(=O)N[C@@H](Cc1ccccc1)C(=O)N[C@@H]([C@@H](C)CC)C(=O)N1CCC[C@H]1C(=O)N2 [caripe 10] (cyclo(CFSTVIGCSCKNKVCYRNGVIPCGESCVFIP); disulfide 1-15, 8-23, 10-27 (inferred); ring closure inferred)
Ki (kOR [2]): 1 µM

conjugated [T20K]-kalata B1: [T20K]-kalata B1 conjugated to VivoTag 680 XL Fluorochrome (GLPVCGETCVGGTCNTPGCKCSWPVCTRN; ends and bridges not checked; also: conjugated to VivoTag 680 XL fluorochrome (place not given here); UniProt P56254 89-117, looked up, variant T20K)
Biodistribution: brain [1]: accumulated in the brain | Biodistribution: spine [1]: also in the spine but to a far less extent

dynorphin A 1-13 [reference compound]
Receptor activation cAMP Emax (%) (kOR [3]): 113% and 104% and 119% and 134% and 137% and 96%

kalata B1: circular plant peptide (cyclotide), GLPVCGETCVGGTCNTPGCTCSWPVCTRN (cyclo(GLPVCGETCVGGTCNTPGCTCSWPVCTRN); ends not checked; also: three disulfide bonds (cystine knot), pairing not given here; listed as Oldenlandia affinis)
T-cell proliferation (T-cell proliferation): silence T-cell proliferation

vitri cyclotide: novel cyclotide isolated from Viola tricolor, GDPIPCGETCFTGKCYSETIGCTCEWPICTKN (not fully specified (bridges); ends and bridges not checked; also: cyclic, type not given here)
Binding of isolated vitri peptide to the kOR (kOR [2]): able to bind to the kOR

From patent publication US20240269230A1 (priority 2020, published 2024)
